Tested on: Influenza strain A549 A/WSN/33 (H1N1)
Test: microbe, parasite or virus in culture
Type: cell-based
Conditions: Influenza A virus, A549, 20 h, A549 cells, influenza A/WSN/33 (H1N1), 20 hours incubation; read-out: A549_A(H1N1) EC50
`O=C1c2c(O)c(=O)ccn2N2CN1CC/C=C\COc1c(ccc(F)c1F)[C@@H]2c1ccccc1` (single isomer, unassigned) [Compound 116A, (2*S,Z)-33,34-difluoro-15-hydroxy-2-phenyl-12,13,14,16-tetrahydro-11H-4-oxa-1(1,3)-pyrido[2,1-f][1,2,4]triazina-3(1,2)-benzenacyclononaphan-6-ene-14,16-dione] showed an EC50 of 14 nM. `O=C1c2c(O)c(=O)ccn2N2CN1[C@H]1C[C@H]1CCOc1cccc3c1[C@H]2c1ccccc1SC3` (stereo in doubt) [Compound 166B, cis-(11a*RS,12a*RS,13S,20a*S)-15-hydroxy-6,11,11a,12,12a,20a-hexahydro-10H-7,8-(epiprop[1]en[1]yl[3]ylidene)-13,20-methanobenzo[6,7]thiepino[4,5-c]cyclopropa[j]pyrido[1,2-f][1]oxa[5,6,9]triazacyclotridecine-14,16-dione] showed an EC50 of 28 nM. In the case of `O=C1c2c(O)c(=O)ccn2N2CN1C1(/C=C/COc3cc(F)cc4c3[C@H]2c2ccccc2SC4)CCC1` (single isomer, unassigned) [Compound 180B, (17a′*S,*E)-24′-fluoro-12′-hydroxy-2′,17a′-dihydro-6′H-spiro[cyclobutane-1,9′-[3,4](epiprop[1]en[1]yl[3]ylidene)[10,17]methanobenzo[6,7]thiepino[4,5-c]pyrido[1,2-f][1]oxa[5,6,9]triazacyclotridecine]-11′,13′-dione], the EC50 is reported as 0.36 nM. For `COC[C@@H]1/C=C/COc2cc(F)c(F)c3c2[C@H](c2ccccc2SC3)N2CN1C(=O)c1c(O)c(=O)ccn12` (single isomer, unassigned) [Compound 177AB, (9*S,17a*R,*E)-24,25-difluoro-12-hydroxy-9-(methoxymethyl)-2,6,9,17a-tetrahydro-3,4-(epiprop[1]en[1]yl[3]ylidene)-10,17-methanobenzo[6,7]thiepino[4,5-c]pyrido[1,2-f][1]oxa[5,6,9]triazacyclotridecine-11,13-dione], the EC50 was 0.67 nM. For `O=C1c2c(O)c(=O)ccn2N2CN1C1(/C=C/COc3cc(F)cc4c3[C@@H]2c2ccccc2SC4)CCC1` (single isomer, unassigned) [Compound 180A, (17a′*R,*E)-24′-fluoro-12′-hydroxy-2′,17a′-dihydro-6′H-spiro[cyclobutane-1,9′-[3,4](epiprop[1]en[1]yl[3]ylidene)[10,17]methanobenzo[6,7]thiepino[4,5-c]pyrido[1,2-f][1]oxa[5,6,9]triazacyclotridecine]-11′,13′-dione], the EC50 was 29 nM. Work on `O=C1c2c(O)c(=O)ccn2N2CN1C1(/C=C/COc3cc(F)c(F)c4c3[C@H]2c2ncccc2SC4)CCC1` (single isomer, unassigned) [Compound 168B, (21a′*S,*E)-24′,25′-difluoro-16′-hydroxy-6′,21a′-dihydro-10′H-spiro[cyclobutane-1,13′-[7,8](epiprop[1]en[1]yl[3]ylidene)[14,21]methanopyrido[1,2-f]pyrido[2′,3′:6,7]thiepino[4,5-c][1]oxa[5,6,9]triazacyclotridecine]-15′,17′-dione] yielded an EC50 of 0.6 nM. In the case of `CC[C@H]1/C=C/COc2cccc3c2[C@@H](c2ccccc2SC3)N2CN1C(=O)c1c(O)c(=O)ccn12` [Compound 92BA, (9S,17aS,E)-9-ethyl-12-hydroxy-2,6,9,17a-tetrahydro-3,4-(epiprop[1]en[1]yl[3]ylidene)-10,17-methanobenzo[6,7]thiepino[4,5-c]pyrido[1,2-f][1]oxa[5,6,9]triazacyclotridecine-11,13-dione], the EC50 is reported as 0.7 nM. `CC[C@@H]1/C=C/COc2c(ccc(F)c2F)[C@@H](c2ccccc2C)N2CN1C(=O)c1c(O)c(=O)ccn12` (single isomer, unassigned) [Compound 167AB, (9*R,18*R,E)-9-ethyl-3,4-difluoro-12-hydroxy-18-(o-tolyl)-6,9-dihydro-18H-10,17-methanobenzo[b]pyrido[1,2-f][1]oxa[5,6,9]triazacyclotridecine-11,13-dione] gave an EC50 of 0.96 nM. For `COC[C@H]1/C=C/COc2cc(F)c(F)c3c2[C@H](c2ccccc2SC3)N2CN1C(=O)c1c(O)c(=O)ccn12` (single isomer, unassigned) [Compound 177AA, (9*R,17a*R,*E)-24,25-difluoro-12-hydroxy-9-(methoxymethyl)-2,6,9,17a-tetrahydro-3,4-(epiprop[1]en[1]yl[3]ylidene)-10,17-methanobenzo[6,7]thiepino[4,5-c]pyrido[1,2-f][1]oxa[5,6,9]triazacyclotridecine-11,13-dione], the EC50 was 15 nM. `CC[C@@H]1/C=C/COc2c(ccc(Cl)c2F)[C@@H](c2ccccc2)N2CN1C(=O)c1c(O)c(=O)ccn12` (single isomer, unassigned) [Compound 170BB, (9*R,18*R,E)-3-chloro-9-ethyl-4-fluoro-12-hydroxy-18-phenyl-6,9-dihydro-18H-10,17-methanobenzo[b]pyrido[1,2-f][1]oxa[5,6,9]triazacyclotridecine-11,13-dione] gave an EC50 of 2 nM. Compound `CC[C@H]1/C=C/COc2c(ccc(Cl)c2F)[C@@H](c2ccccc2)N2CN1C(=O)c1c(O)c(=O)ccn12` (single isomer, unassigned) [Compound 170BA, (9*S,18*R,E)-3-chloro-9-ethyl-4-fluoro-12-hydroxy-18-phenyl-6,9-dihydro-18H-10,17-methanobenzo[b]pyrido[1,2-f][1]oxa[5,6,9]triazacyclotridecine-11,13-dione] has an EC50 of 24 nM. For `O=C1c2c(O)c(=O)ccn2N2CN1[C@]1(/C=C/COc3cc(F)c(F)c4c3[C@H]2c2ccccc2SC4)CCOC1` (single isomer, unassigned) [Compound 176BB, (3*S, 17a′*S,*E)-24′,25′-difluoro-12′-hydroxy-2′,4,5,17a′-tetrahydro-2H,6′H-spiro[furan-3,9′-[3,4](epiprop[1]en[1]yl[3]ylidene)[10,17]methanobenzo[6,7]thiepino[4,5-c]pyrido[1,2-f][1]oxa[5,6,9]triazacyclotridecine]-11′,13′-dione], the EC50 was 1.4 nM. `O=C1c2c(O)c(=O)ccn2N2CN1[C@@]1(/C=C/COc3cc(F)c(F)c4c3[C@H]2c2ccccc2SC4)CCOC1` (single isomer, unassigned) [Compound 176BA, (3*R, 17a′*S,*E)-24′,25′-difluoro-12′-hydroxy-2′,4,5,17a′-tetrahydro-2H,6′H-spiro[furan-3,9′-[3,4](epiprop[1]en[1]yl[3]ylidene)[10,17]methanobenzo[6,7]thiepino[4,5-c]pyrido[1,2-f][1]oxa[5,6,9]triazacyclotridecine]-11′,13′-dione] gave an EC50 of 1.1 nM. For `Cc1ccccc1[C@H]1c2ccc(F)c(F)c2OC/C=C/C2(CCC2)N2CN1n1ccc(=O)c(O)c1C2=O` (single isomer, unassigned) [Compound 174B, (18′*S,*E)-3′,4′-difluoro-12′-hydroxy-18′-(o-tolyl)-6′H,18′H-spiro[cyclobutane-1,9′-[10,17]methanobenzo[b]pyrido[1,2-f][1]oxa[5,6,9]triazacyclotridecine]-11′,13′-dione], the EC50 was 1.2 nM. Work on `O=C1c2c(O)c(=O)ccn2N2CN1C/C=C\COc1c(F)cccc1[C@H]2c1cccc(F)c1` (single isomer, unassigned) [Compound 59A, (18*R,Z)-4-fluoro-18-(3-fluorophenyl)-12-hydroxy-6,9-dihydro-18H-10,17-methanobenzo[b]pyrido[1,2-f][1]oxa[5,6,9]triazacyclotridecine-11,13-dione] yielded an EC50 of 5 nM. `CC[C@H]1/C=C/COc2c(ccc(F)c2Cl)[C@@H](c2ccccc2)N2CN1C(=O)c1c(O)c(=O)ccn12` (single isomer, unassigned) [Compound 173BA, (9*S,18*R,*E)-4-chloro-9-ethyl-3-fluoro-12-hydroxy-18-phenyl-6,9-dihydro-18H-10,17-methanobenzo[b]pyrido[1,2-f][1]oxa[5,6,9]triazacyclotridecine-11,13-dione] gave an EC50 of 26 nM. With `CC[C@H]1/C=C/COc2c(ccc(F)c2F)[C@@H](c2ccccc2C)N2CN1C(=O)c1c(O)c(=O)ccn12` (single isomer, unassigned) [Compound 167AA, (9*S,18*R,E)-9-ethyl-3,4-difluoro-12-hydroxy-18-(o-tolyl)-6,9-dihydro-18H-10,17-methanobenzo[b]pyrido[1,2-f][1]oxa[5,6,9]triazacyclotridecine-11,13-dione] the EC50 was 0.91 nM. Work on `CC[C@@H]1/C=C/COc2c(ccc(F)c2F)[C@H](c2ccccc2C)N2CN1C(=O)c1c(O)c(=O)ccn12` (single isomer, unassigned) [Compound 167BB, (9*R,18*S,E)-9-ethyl-3,4-difluoro-12-hydroxy-18-(o-tolyl)-6,9-dihydro-18H-10,17-methanobenzo[b]pyrido[1,2-f][1]oxa[5,6,9]triazacyclotridecine-11,13-dione] yielded an EC50 of over 50 nM. Work on `O=C1c2c(O)c(=O)ccn2N2CN1C/C=C\COc1c(ccc(F)c1F)[C@H]2c1ccccc1CF` (single isomer, unassigned) [Compound 175A, (18*R,Z)-3,4-difluoro-18-(2-(fluoromethyl)phenyl)-12-hydroxy-6,9-dihydro-18H-10,17-methanobenzo[b]pyrido[1,2-f][1]oxa[5,6,9]triazacyclotridecine-11,13-dione] yielded an EC50 of 2.3 nM. For `CC(C)[C@H]1/C=C/COc2cc(F)c(F)c3c2[C@H](c2ccccc2SC3)N2CN1C(=O)c1c(O)c(=O)ccn12` (single isomer, unassigned) [Compound 169BA, (9*S,17a*R,*E)-24,25-difluoro-12-hydroxy-9-isopropyl-2,6,9,17a-tetrahydro-3,4-(epiprop[1]en[1]yl[3]ylidene)-10,17-methanobenzo[6,7]thiepino[4,5-c]pyrido[1,2-f][1]oxa[5,6,9]triazacyclotridecine-11,13-dione], the EC50 was 0.83 nM. `CC[C@H]1/C=C/COc2c(ccc(F)c2F)[C@H](c2ccccc2C)N2CN1C(=O)c1c(O)c(=O)ccn12` (single isomer, unassigned) [Compound 167BA, (9*S,18*S,E)-9-ethyl-3,4-difluoro-12-hydroxy-18-(o-tolyl)-6,9-dihydro-18H-10,17-methanobenzo[b]pyrido[1,2-f][1]oxa[5,6,9]triazacyclotridecine-11,13-dione] showed an EC50 of over 50 nM.

Tested on: not listed separately
Test: in vitro
Conditions: human, CC50, uninfected A549 cells, CellTiter-Glo
Compound `O=C1c2c(O)c(=O)ccn2N2CN1CC/C=C\COc1c(ccc(F)c1F)[C@@H]2c1ccccc1` (single isomer, unassigned) [Compound 116A, (2*S,Z)-33,34-difluoro-15-hydroxy-2-phenyl-12,13,14,16-tetrahydro-11H-4-oxa-1(1,3)-pyrido[2,1-f][1,2,4]triazina-3(1,2)-benzenacyclononaphan-6-ene-14,16-dione] has a CC50 of over 200 nM.
